Here are results for 55 molecules from US20110053897A1 (IRM LLC, priority 2009, published 2011).

This assay concerns the target T1, Syk kinase (Homo sapiens, UniProt P43405).
T1 construct: purchased
Nature of the assay: Syk kinase inhibition, Caliper LabChip off-chip mobility-shift kinase assay. Format: biochemical. As to conditions: read-out: Syk Enzyme IC50. In outline:
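Purified Syk pre-incubated 15 min with compound in 100 mM HEPES pH 7.5, 1 mM DTT, 10 mM MgCl2 or MnCl2, 0.002% Brij-35, then 1.5 μM fluorescein peptide and ATP at apparent KM added; 1–1.5 h at room temperature, 4% DMSO, EDTA stop. Microfluidic mobility-shift product/substrate conversion gave % inhibition; IC50 from 12-point series (10–0.00003 μM) by 4-parameter fit.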
Regarding `CCc1ccnc(Nc2cc3ccn(CC)c(=O)c3c(NC(C)C)n2)c1` [compound 304], the half-maximal inhibitory concentration (IC50) is 384 nM.

Turning to `CCn1ccc2cc(Nc3cc(Cl)ccn3)nc(NC(C)C)c2c1=O` [compound 305], the IC50 amounted to 257 nM.

Turning to `CCCc1ccnc(Nc2cc3ccn(CC)c(=O)c3c(NC(C)C)n2)c1` [compound 306], the 50% inhibitory concentration (IC50) was 612 nM.

As to `CCn1ccc2cc(Nc3cnccn3)nc(NC(C)C)c2c1=O` [compound 307], the 50% inhibitory concentration (IC50) turned out to be 60 nM.

On to `Cc1ccnc(Nc2cc3ccn(C)c(=O)c3c(Nc3ccc(C4CCNCC4)cc3)n2)c1` [compound 308], for which the IC50 is 7 nM.

For `Cc1ccnc(Nc2cc3ccn(C)c(=O)c3c(Nc3ccc(C4CCN(C)CC4)cc3)n2)c1` [compound 309], the IC50 is 16 nM.

For the molecule `CC(=O)N1CCC(c2ccc(Nc3nc(Nc4cc(C)ccn4)cc4ccn(C)c(=O)c34)cc2)CC1` [compound 310], the IC50 is 763 nM.

For the molecule `Cc1ccnc(Nc2cc3ccn(C)c(=O)c3c(Nc3ccc(C4CCN(CCS(C)(=O)=O)CC4)cc3)n2)c1` [compound 311], the IC50 amounted to 496 nM.

In the case of `Cc1ccnc(Nc2cc3ccn(CCO)c(=O)c3c(NC(C)C)n2)c1` [compound 313], the IC50 is 85 nM.

Consider `COCCn1ccc2cc(Nc3cc(C)ccn3)nc(NC(C)C)c2c1=O` [compound 314], for which the IC50 came out at 237 nM.

`Cc1ccnc(Nc2cc3ccn(CCN4CCOCC4)c(=O)c3c(NC(C)C)n2)c1` [compound 315]: the half-inhibitory concentration (IC50) amounted to 381 nM.

Consider `CCNC(=O)Cn1ccc2cc(Nc3cc(C)ccn3)nc(NC(C)C)c2c1=O` [compound 316], for which the IC50 was 270 nM.

As for `CC(C)Nc1nc(Nc2cnccn2)cc2ccn(CCO)c(=O)c12` [compound 318], the half-inhibitory concentration (IC50) stood at 52 nM.

As for `COCCn1ccc2cc(Nc3cnccn3)nc(NC(C)C)c2c1=O` [compound 319], the IC50 came to 137 nM.

`CC(C)Nc1nc(Nc2cnccn2)cc2ccn(CCN3CCOCC3)c(=O)c12` [compound 320]: the half-maximal inhibitory concentration (IC50) was found to be 200 nM.

Turning to `CCNC(=O)Cn1ccc2cc(Nc3cnccn3)nc(NC(C)C)c2c1=O` [compound 321], the IC50 was 177 nM.

For the molecule `Cc1ccnc(Nc2cc3ccn(C)c(=O)c3c(N[C@@H](C)CO)n2)c1` [compound 323], the 50% inhibitory concentration (IC50) was determined as 37 nM.

In the case of `Cc1ccnc(Nc2cc3ccn(C)c(=O)c3c(N[C@H]3CCOC3)n2)c1` [compound 325], the half-inhibitory concentration (IC50) worked out at 57 nM.

For `Cc1ccnc(Nc2cc3ccn(C)c(=O)c3c(N[C@H]3CC[C@@H](O)CC3)n2)c1` [compound 326], the half-maximal inhibitory concentration (IC50) turned out to be 32 nM.

For `C[C@@H](CO)Nc1nc(Nc2cnccn2)cc2ccn(C)c(=O)c12` [compound 327], the half-maximal inhibitory concentration (IC50) amounted to 120 nM.

Regarding `Cn1ccc2cc(Nc3cnccn3)nc(N[C@H]3CCOC3)c2c1=O` [compound 329], the half-inhibitory concentration (IC50) worked out at 63 nM.

On to `Cn1ccc2cc(Nc3cnccn3)nc(N[C@H]3CC[C@@H](O)CC3)c2c1=O` [compound 330], for which the half-maximal inhibitory concentration (IC50) is 24 nM.

For the molecule `CCN(CC)CCNC(=O)c1ccc(Nc2nc(Nc3cc(C)ccn3)cc3ccn(C)c(=O)c23)cc1` [compound 331], the half-maximal inhibitory concentration (IC50) came out at 748 nM.

As to `Cc1ccnc(Nc2cc3ccn(C)c(=O)c3c(Nc3ccc(S(C)(=O)=O)cc3)n2)c1` [compound 332], the IC50 worked out at 78 nM.

For `CCOCCOc1ccc(Nc2nc(Nc3cc(C)ccn3)cc3ccn(C)c(=O)c23)cc1` [compound 334], the concentration for half-maximal inhibition (IC50) turned out to be 1720 nM.

Consider `CCOCCOc1cccc(Nc2nc(Nc3cc(C)ccn3)cc3ccn(C)c(=O)c23)c1` [compound 335], for which the half-maximal inhibitory concentration (IC50) amounted to 1610 nM.

For the molecule `Cn1ccc2cc(Nc3cnccn3)nc(Nc3ccc(S(C)(=O)=O)cc3)c2c1=O` [compound 336], the IC50 was 584 nM.

As for `CCOCCOc1cccc(Nc2nc(Nc3cnccn3)cc3ccn(C)c(=O)c23)c1` [compound 337], the IC50 was 2130 nM.

With `CCN(CC)CCNC(=O)c1ccc(Nc2nc(Nc3cnccn3)cc3ccn(C)c(=O)c23)cc1` [compound 338], the IC50 turned out to be 1620 nM.

For `Cn1ccc2cc(Nc3cnccn3)nc(Nc3cccc(S(N)(=O)=O)c3)c2c1=O` [compound 339], the IC50 came to 879 nM.

In the case of `CCOCCOc1ccc(Nc2nc(Nc3cnccn3)cc3ccn(C)c(=O)c23)cc1` [compound 340], the IC50 amounted to 2060 nM.

On to `Cn1ccc2cc(Nc3cnccn3)nc(Nc3ccc(C4CCNCC4)cc3)c2c1=O` [compound 341], for which the IC50 amounted to 112 nM.

For the molecule `CNC(=O)c1ccc(Nc2nc(Nc3cc(C)ccn3)cc3ccn(C)c(=O)c23)cc1` [compound 342], the concentration for half-maximal inhibition (IC50) was determined as 222 nM.

Turning to `CNC(=O)c1ccc(Nc2nc(Nc3cnccn3)cc3ccn(C)c(=O)c23)cc1` [compound 343], the IC50 is 333 nM.

`CN1CCC(c2ccc(Nc3nc(Nc4cnccn4)cc4ccn(C)c(=O)c34)cc2)CC1` [compound 344]: the IC50 was found to be 45 nM.

Regarding `CC(=O)N1CCC(c2ccc(Nc3nc(Nc4cnccn4)cc4ccn(C)c(=O)c34)cc2)CC1` [compound 345], the IC50 turned out to be 1220 nM.

In the case of `Cn1ccc2cc(Nc3cnccn3)nc(Nc3ccc(C4CCN(C5COC5)CC4)cc3)c2c1=O` [compound 346], the half-inhibitory concentration (IC50) amounted to 387 nM.

Turning to `CC(C)Nc1nc(Nc2cnccn2)cc2ccn(C)c(=O)c12` [compound 347], the IC50 was determined as 57 nM.

`CCn1ccc2cc(Nc3cncnc3C)nc(NC(C)C)c2c1=O` [compound 348]: the IC50 was determined as 7440 nM.

As for `CNS(=O)(=O)c1ccc(Nc2nc(Nc3cc(C)ccn3)cc3ccn(C)c(=O)c23)cc1` [compound 349], the IC50 came to 414 nM.

Turning to `CNS(=O)(=O)c1ccc(Nc2nc(Nc3cnccn3)cc3ccn(C)c(=O)c23)cc1` [compound 350], the 50% inhibitory concentration (IC50) was determined as 803 nM.

For the molecule `Cc1ccnc(Nc2cc3ccn(C)c(=O)c3c(Nc3cccc(S(N)(=O)=O)c3)n2)c1` [compound 352], the concentration for half-maximal inhibition (IC50) was 294 nM.

For the molecule `CCn1ccc2cc(Nc3cnccn3)nc(N[C@@H](C)CO)c2c1=O` [compound 353], the half-inhibitory concentration (IC50) came out at 35 nM.

As to `CCn1ccc2cc(Nc3cnccn3)nc(N[C@H]3CCOC3)c2c1=O` [compound 355], the half-maximal inhibitory concentration (IC50) was 37 nM.

As to `CCn1ccc2cc(Nc3cnccn3)nc(N[C@H]3CC[C@@H](O)CC3)c2c1=O` [compound 356], the IC50 worked out at 10 nM.

Consider `Cc1ccnc(Nc2cc3ccn(C)c(=O)c3c(N[C@H]3CC[C@H](O)CC3)n2)c1` [compound 357], for which the concentration for half-maximal inhibition (IC50) is 41 nM.

In the case of `Cn1ccc2cc(Nc3cnccn3)nc(N[C@H]3CC[C@H](O)CC3)c2c1=O` [compound 358], the half-maximal inhibitory concentration (IC50) was determined as 49 nM.

Consider `CCn1ccc2cc(Nc3cc(C)ccn3)nc(N[C@@H](C)CO)c2c1=O` [compound 359], for which the IC50 was 25 nM.

Consider `CCn1ccc2cc(Nc3cc(C)ccn3)nc(N[C@H]3CCOC3)c2c1=O` [compound 361], for which the half-inhibitory concentration (IC50) came out at 30 nM.

As to `CCn1ccc2cc(Nc3cc(C)ccn3)nc(N[C@H]3CC[C@@H](O)CC3)c2c1=O` [compound 362], the concentration for half-maximal inhibition (IC50) worked out at 18 nM.

Take `CCCNC(=O)c1ccc(Nc2nc(Nc3cc(C)ccn3)cc3ccn(C)c(=O)c23)cc1` [compound 363]: the IC50 came to 551 nM.

Regarding `COc1ccc(Nc2nc(Nc3cc(C)ccn3)cc3ccn(C)c(=O)c23)cc1` [compound 364], the half-inhibitory concentration (IC50) turned out to be 228 nM.

On to `COc1ccc(Nc2nc(Nc3cnccn3)cc3ccn(C)c(=O)c23)cc1` [compound 365], for which the IC50 was found to be 361 nM.

Turning to `CCCNC(=O)c1ccc(Nc2nc(Nc3cnccn3)cc3ccn(C)c(=O)c23)cc1` [compound 366], the IC50 was found to be 323 nM.

With `Cc1ccnc(Nc2cc3ccn(CCO)c(=O)c3c(N[C@@H](C)CO)n2)c1` [compound 367], the IC50 was found to be 13 nM.

In general, IC50 refers to the concentration that gives 50% inhibition.
